Where “and” joins values, the source holds several entries; their conditions need not be identical. Identical values can stand only once. Residues, ends and D or L forms follow the SMILES beside them. No end group written: not given here.
Columns and labels:
[1] = system: Pseudomonas syringae pv tomato, DC3000; test: systemic resistance of Arabidopsis plants to a virulent bacterial pathogen; format: in vivo, Arabidopsis ecotype Columbia (Col-0); details: 20 μl salicylic acid 1 mM and 20 μl SEQ ID NO: 15 applied to the leaves
Procedure: Seeds of Arabidopsis ecotype Columbia (Col-0) were planted in potting soil. Plants were cultivated in a growth chamber with 10-h d (200 μmol m^−2s^−1 at 22° C.) and 14-h night (18° C.) cycles and 80% RH. Once a week plants were supplied with water and modified one-half strength Hoagland nutrient solution: 2 mM KNO 5 mM Ca(NO3)2 and trace elements, pH 7.
A virulent plant pathogen, Pst Pseudomonas syringae pv tomato, DC3000 was grown at 28° C. on King's medium B containing 40 mg/L tetracycline. Plants were inoculated with 1×10^7 cfu/ml of the pathogen in 0.01% Silwet L77 (v/v) (a surfactant) and distilled water 5 weeks after sowing. The bacterial suspension or a control solution (0.01% Silwet L77 in water) was then sprayed on the plant once.
Disease symptoms in Arabidopsis are water-soaked, spreading lesions, sometimes surrounded by chlorotic margin that eventually lead to yield loss and plant death.
To test the efficacy of SEQ ID NO: 15, some healthy and some disease plants were sprayed with salicylic acid in 0.01%. Silwet L77; some healthy and some disease plants were sprayed with SEQ ID NO: 15 in 0.01%. Silwet L77, and some healthy and some disease plants were sprayed with salicylic acid in combination with SEQ ID NO: 15 in 0.01%. Silwet L77. A control group of some healthy and some disease plants were sprayed with water in 0.01%. Silwet L77. […]

[2] = solubility of test article in 0.9% saline; format: physicochemical; details: 100 mg/mL: 1.4 mL of saline added to 141.5 mg, room temperature
Procedure: The test article was SEQ ID NO: 1, a white powder, which was delivered in 0.9% saline. The test article formulations were prepared on the day of study and kept at room temperature until dosing. 100 mg/kg at 1 mL/kg=100 mg/mL 1.4 mL of saline added to 141.5 mg of test article, soluble.

[3] = feeding behavior of rats exposed to high levels of the peptide; format: in vivo; details: at least 3 days
From the text: Pain is basically managed by two classes of drugs. […] The peptide has no anti-inflammatory properties and this differentiates it pharmacologically from analgesics in the NSAID's.

[4] = system: post-surgical pain in rats; test: oral administration, von Frey withdrawal response after plantar incision; format: in vivo; details: for Withdrawal Response Post-Dose / Post-Dose change of pain threshold (arrow): morphine sulfate 3.7 mg/kg; for Withdrawal Response Post-Dose: peptides 100 mg/kg; for Withdrawal Response Post-Surgery: 150 min after surgery, before dosing; for Post-Dose change of pain threshold (arrow): peptides 100 mg/kg oral; for Withdrawal Response Pre-Surgery: baseline 15 min pre-surgery; for effect when administered with aspirin / effect when administered with Naloxone / effect on pain threshold: oral; for effect when administered with aspirin: ASA 1 mg/kg co-administered (Groups 4, 6, 9); for effect when administered with Naloxone: Naloxone 2 mg/kg co-administered (Groups 3, 5, 8); for effect on pain threshold: with 0.9% saline as Treatment 1 (Groups 2, 7, 10)
From the text: Table VI below illustrates results from the oral administration of SEQ ID NO: 1 and SEQ ID NO: 153 and the effects of Naloxone and aspirin on their ability to decrease the pain threshold.
In this experiment animals were weighed and placed in the group numbers designated on the left hand column. Each group is composed of 10 rats. Animals were anesthetized with 1.8 to 4% isofluorane (delivered via a nose cone) and each received an intramuscular injection of penicillin (30,000 IU) in the triceps muscle after preparation of the foot with betadine and alcohol (SOPs VET-1 and VET-8). A 1 cm long incision of skin and fascia was made in the plantar aspect (heel, midfoot or distal pad area) of the right hind paw. No underlying muscle was incised. After hemostasis with gentle pressure, the incision was closed with one or two sutures (5-0 silk/nylon ophthalmic suture on a taper TF needle or equivalent). The wound site was covered with a mixture of polymixin B, neomycin, and bacitracin ointment. After surgery, rats were allowed to recover in their cages until behavioral testing. Prior to surgery, rats were placed individually on an elevated wire mesh floor covered with a clear plastic cage top and allowed to acclimate. Baseline pain behavior was measured as follows: Withdrawal responses to mechanical stimulation were determined using von Frey filaments applied from underneath the cage through openings (12×12 mm in the plastic mesh floor to an area adjacent to the intended incision). Each von Frey filament (Target force of 0.008 g to 300 g) was applied once starting with 0.008 g filament and continuing until a withdrawal response occurred or 300 g force was reached. The median force producing a response, determined from three tests given over a 10-min period was considered the withdrawal threshold. Rats were tested for responses 15 minutes pre-surgery, 150 minutes after surgery, and 20 minutes after treatment. Oral treatments 1 and 2 were co-administered 180 minutes after surgery. The test article/vehicle administration and pain measurements were as per Table below.
As illustrated by Table VI, SEQ ID NOs: 1 and 153 attenuate sensitization to von Frey mechanical stimuli after oral application. The response to the von Frey monofilament is in gram. Arrow up (1) indicates an increase in the pain threshold and arrow down (1) indicates a decrease in the threshold. Zero indicates no change.

opioid receptor = test: mechanism of action with Naloxone, antagonist of the opioid receptors (oral pain study); parameters: species or system rats; details: inferred from in vivo Naloxone co-administration, no binding test
Procedure: When Naloxene was administered with SEQ ID NO: 153 (Group 8), the effects of SEQ ID NO: 153 were reduced (compare Group 8 to Group 10) but unlike the case of Morphine (Group 3), not completely eliminated.

[5] = system: Sauromatum guttatum appendix; test: heat production by Sauromatum guttatum appendix sections treated with 2,6-dihydroxybenzoic acid (2,6-DHBA); details: second experiment, application up to 50 μM, data not shown
Procedure: In one example, using Sauromatum guttatum as the experimental module, on the day of inflorescence-opening, the Sauromatum appendix (a 20-40 cm-long, slender organ) becomes warm, reaching a 32° C. temperature (Skubatz et al., 1991, Plant Physiol. 95-1084-1088). The heat generated by the appendix is generated by the mitochondria. This mitochondrial activity can be triggered by the addition of phenolic compounds, including but not limited to, salicylic acid, aspirin, and 2,6-dihydroxybenzoic acid. Test agents can be applied to the plant and the plant's temperature may be monitored in vivo.
FIG. 6 illustrates modulation of heat generated by 2,6-dihydroxybenzoic acid in the presence of the Alzheimer's peptide, Aβ 1-42, SEQ ID NO: 49 and a plant gene derived sequence in the Sauromatum guttatum appendix. One day before heat-production, sections of the appendix were placed in different solutions containing 2,6-dihydroxybenzoic acid (2,6-DHBA) with or without SEQ ID NO: 2 (FLPSEFGVDVDR) and SEQ ID NO: 51. Heat-production was monitored with thermocouples attached to the sections. A section placed in distilled water that was not generated any heat is the control (water). […] The temperature was recorded every 5 min. […] This figure illustrates that these peptides modulate thermogenicity in plants as well as animals and act as mitochondrial modulators.

[6] = 20 min after oral treatment, co-administered ASA 1 mg/kg
[7] = 20 min after oral treatment, co-administered Naloxone 2 mg/kg
[8] = group later given Treatment 1 0.9% Saline + Treatment 2
[9] = group later given Treatment 1 ASA 1 mg/kg + Treatment 2
[10] = group later given Treatment 1 Naloxone 2 mg/kg + Treatment 2
[11] = group later given Treatment 1 0.9% Saline 2 mL/kg + oral Treatment 2 (morphine sulfate 3.7 mg/kg or peptide 100 mg/kg)
[12] = co-administered Naloxone 2 mg/kg

| Compound | systemic resistance to the virulent bacteria [1] | Withdrawal Response Post-Dose [4, 6] | Withdrawal Response Post-Dose [4, 7] [g] | Withdrawal Response Post-Surgery [4, 8] | Withdrawal Response Post-Surgery [4, 9] [g] | Withdrawal Response Post-Surgery [4, 10] [g] | Withdrawal Response Pre-Surgery [4, 11] [g] | Withdrawal Response Pre-Surgery [4, 9] [g] | Withdrawal Response Pre-Surgery [4, 10] [g] | Post-Dose change of pain threshold (arrow) [4, 12] | effect when administered with aspirin [4] | effect when administered with Naloxone [4] | effect on pain threshold [4] | also measured |
| --- | --- | --- | --- | --- | --- | --- | --- | --- | --- | --- | --- | --- | --- | --- |
| O=C(O)c1ccccc1O [salicylic acid] | enough to trigger systemic resistance | – | – | – | – | – | – | – | – | – | – | – | – | – |
| CC(C)C[C@H](NC(=O)[C@@H](N)Cc1ccccc1)C(=O)N1CCC[C@H]1C(=O)N[C@@H](CO)C(=O)O [SEQ ID NO: 1, Phe-Leu-Pro-Ser] (H-FLPS-OH; N-terminus and C-terminus assumed) | – | – | – | – | – | – | – | – | – | – | – | – | – | solubility in saline [2]: soluble; feeding behavior [3]: did not invoke an abnormal feeding behavior |
| YGGFL [SEQ ID NO: 15] | enough to trigger systemic resistance | – | – | – | – | – | – | – | – | – | – | – | – | – |
| SPLF [SEQ ID NO: 153] | – | 5.7 g and 5.7 ± 0.56 g | 4.7 ± 0.45 | 4.5 g and 4.5 ± 0.32 g | 4.7 ± 0.56 | 4.5 ± 0.55 | 28.1 ± 3.02 | 29.2 ± 3.21 | 29.3 ± 4.00 | 0 | improved effect | reduced | increases the pain threshold | Withdrawal Response Post-Dose ([4]; 20 min after oral treatment at 180 min after surgery, Treatment 1 0.9% Saline 2 mL/kg): 5.0 g and 5.0 ± 0.41 g; Post-Dose change of pain threshold (arrow) ([4]; Treatment 1 0.9% Saline 2 mL/kg): 0; binding to the opioid receptor relative to Morphine and Naloxone (opioid receptor): binds to the opioid receptor more tightly than Morphine, but less tightly than Naloxene |
| CN1CC[C@]23c4c5ccc(O)c4O[C@H]2[C@@H](O)C=C[C@H]3[C@H]1C5.O=S(=O)(O)O [Morphine sulfate, reference compound] | – | 5.5 ± 0.80 g | 3.5 ± 0.24 | 3.8 ± 0.52 g | 4.3 ± 0.41 | 3.7 ± 0.39 | 30.4 ± 3.29 | 21.9 ± 2.13 | 28.5 ± 4.53 | 0 | aspirin reduced the effects of Morphine | the effect of Morphine is eliminated | the pain threshold is increased | Withdrawal Response Post-Dose ([4]; 20 min after oral treatment at 180 min after surgery, Treatment 1 0.9% Saline 2 mL/kg, listed as Morphine, sulfate): 6.6 g; Withdrawal Response Post-Dose ([4]; 20 min after oral treatment at 180 min after surgery, Treatment 1 0.9% Saline 2 mL/kg, sulfate): 6.6 ± 1.58 g |
| FLPSEFGVDVDR [SEQ ID NO: 2] | – | – | – | – | – | – | – | – | – | – | – | – | – | heat generation by the peptide [5]: did not generate heat |

From US7557088B2, “Methods and compositions for treating conditions” (NeoPro Labs, LLC, priority 2006, dated 2009)
